Experimental data as given in PMC2901175 (ACS medicinal chemistry letters, 2010).
Converted amounts (≈) assume the structure as drawn.

Assays:
[1] = tested on: IMP-1; settings: cited from earlier work
[2] = target: VIM-2; settings: against VIM-2; cited from earlier work
[3] = tested on: VIM-2 expressing bacteria; settings: cited from earlier work
[4] = tested on: BL21/VIM-2 E. coli; assay: Imipenem MIC potentiation in VIM-2 transformed E. coli; type: cell-based
[5] = tested on: parental (BL21) E. coli; assay: Imipenem MIC in parental E. coli; type: cell-based; settings: Escherichia coli, read-out: imipenem MIC

For `C#CCCOCc1nn[nH]c1CNS(=O)(=O)c1ccc(I)cc1` [Compound 1, N-((4-((but-3-ynyloxy)methyl)-1H-1,2,3-triazol-5-yl)methyl)-4-iodo-benzenesulfonamide], the “activity towards IMP-1 (in words)” value [1] is given as “inactive”, the Ki [2] is given as 410 ± 30 nM and the “potentiation of ß-lactam antibacterial effects (in words)” value [3] is given as “did not potentiate”.
For `C[C@@H](O)[C@H]1C(=O)N2C(C(=O)O)=C(SCCN=CN)C[C@H]12` [imipenem], the “fold increase of imipenem MIC, BL21/VIM-2 relative to parental BL21” value [4] was “approximately 9 fold”, the MIC ([4]; Escherichia coli, read-out: imipenem MIC) was 1.85 µg/mL and the MIC [5] was 0.21 µg/mL (≈ 0.702 µM).
For `O=C(O)c1cc[c]([Hg][Cl])cc1` [pCMB, p-chloromercuribenzoic acid], the “potentiation of ß-lactam antibacterial effects (in words)” value [3] is listed as “synergistic effect”.
